Source: US20220167615A1, “FUNGICIDAL COMPOSITIONS” (SYNGENTA CROP PROTECTION AG, priority 2019, published 2022)

Legend:
[1] = test system: Puccinia recondita f. sp. tritici; assay: Puccinia recondita f. sp. tritici / wheat / leaf disc preventative (Brown rust); type: in vivo; conditions: foliar, 200 ppm in the applied formulation, wheat leaf segments cv. Kanzler, inoculated 1 day after application, assessed 7-9 days after application, read-out: percent disease control compared to untreated
[2] = test system: Monographella nivalis (Microdochium nivale); assay: Monographella nivalis (Microdochium nivale) / liquid culture (foot rot cereals); type: cell-based; conditions: 20 ppm in the applied formulation, PDB, 24° C., 4-5 days after application, vs untreated control, read-out: disease control (inhibition of growth, photometric)
Phakopsora pachyrhizi = Phakopsora pachyrhizi / soybean / leaf disc preventative (Asian soybean rust); type: in vivo; conditions: foliar, 200 ppm in the applied formulation, soybean leaf disks, inoculated one day after application, assessed 12 to 14 days after application, read-out: percent disease control compared to untreated
[3] = test system: Mycosphaerella arachidis (Cercospora arachidicola); assay: Mycosphaerella arachidis (Cercospora arachidicola) / liquid culture (early leaf spot); type: cell-based; conditions: 20 ppm in the applied formulation, PDB, 24° C., 4-5 days after application, vs untreated control, read-out: disease control (inhibition of growth, photometric)
[4] = test system: Mycosphaerella graminicola (Septoria tritici); assay: Mycosphaerella graminicola (Septoria tritici) / liquid culture (Septoria blotch); type: cell-based; conditions: Zymoseptoria tritici; 20 ppm in the applied formulation; PDB, 24° C., 4 to 5 days after application; vs untreated control; read-out: disease control (inhibition of growth, photometric)
[5] = test system: Magnaporthe grisea (Pyricularia oryzae); assay: whole plant or invertebrate; type: in vivo; conditions: foliar, read-out: percent disease control compared to untreated
[6] = test system: Phaeosphaeria nodorum (Septoria nodorum); assay: Phaeosphaeria nodorum (Septoria nodorum) / wheat / leaf disc preventative (Glume blotch); type: in vivo; conditions: Parastagonospora nodorum, foliar; 200 ppm in the applied formulation; wheat leaf segments cv. Kanzler, inoculated 2 days after application, assessed 5-7 days after application; read-out: percent disease control compared to untreated
[7] = test system: Glomerella lagenarium (Colletotrichum lagenarium); assay: Glomerella lagenarium (Colletotrichum lagenarium) / liquid culture (Anthracnose); type: cell-based; conditions: Colletotrichum orbiculare; 20 ppm in the applied formulation; PDB, 24° C., 3 to 4 days after application; vs untreated control; read-out: disease control (inhibition of growth, photometric)
[8] = test system: Botryotinia fuckeliana (Botrytis cinerea); assay: Botryotinia fuckeliana (Botrytis cinerea) / liquid culture (Gray mould); type: cell-based; conditions: 20 ppm in the applied formulation, Vogels broth, 24° C., 3-4 days after application, vs untreated control, read-out: disease control (inhibition of growth, photometric)

COc1ccnc(C(=O)N[C@@H](C)C(=O)O[C@@H](C)C2(c3cccc4ccccc34)CC2)c1OCOC(C)=O [X.04, [(1S)-1-[1-(1-naphthyl)cyclopropyl]ethyl] (2S)-2-[[3-(acetoxymethoxy)-4-methoxy-pyridine-2-carbonyl]amino]propanoate]
≥ 80%: pest or weed control at 200 ppm [1] | inhibition at 20 ppm [2] | pest or weed control at 200 ppm (Phakopsora pachyrhizi) | inhibition at 20 ppm [3] | inhibition at 20 ppm [4] | pest or weed control at 200 ppm [5] | pest or weed control at 200 ppm [6] | inhibition at 20 ppm [7]

COc1ccnc(C(=O)N[C@@H](C)C(=O)O[C@@H](C)C2(c3cccc4ccccc34)CC2)c1O [X.05, [(1S)-1-[1-(1-naphthyl)cyclopropyl]ethyl] (2S)-2-[(3-hydroxy-4-methoxy-pyridine-2-carbonyl)amino]propanoate]
≥ 80%: pest or weed control at 200 ppm [1] | inhibition at 20 ppm [2] | inhibition at 20 ppm [8] | pest or weed control at 200 ppm (Phakopsora pachyrhizi) | inhibition at 20 ppm [3] | inhibition at 20 ppm [4] | pest or weed control at 200 ppm [5] | pest or weed control at 200 ppm [6] | inhibition at 20 ppm [7]

COc1ccnc(C(=O)N[C@@H](C)C(=O)O[C@@H](C)C2(c3cccc4ccccc34)CC2)c1OCOC(=O)C(C)C [X.07, [4-methoxy-2-[[(1S)-1-methyl-2-[(1S)-1-[1-(1-naphthyl)cyclopropyl]ethoxy]-2-oxo-ethyl]carbamoyl]-3-pyridyl]oxymethyl 2-methylpropanoate]
≥ 80%: pest or weed control at 200 ppm [1] | inhibition at 20 ppm [3] | inhibition at 20 ppm [4] | pest or weed control at 200 ppm [5] | pest or weed control at 200 ppm [6] | inhibition at 20 ppm [7]

COc1ccnc(C(=O)N[C@@H](C)C(=O)O[C@@H](C)C2(c3cccc4ccccc34)CC2)c1OC(C)=O [X.17, [(1S)-1-[1-(1-naphthyl)cyclopropyl]ethyl] (2S)-2-[(3-acetoxy-4-methoxy-pyridine-2-carbonyl)amino]propanoate]
≥ 80%: pest or weed control at 200 ppm [1] | inhibition at 20 ppm [2] | inhibition at 20 ppm [8] | pest or weed control at 200 ppm (Phakopsora pachyrhizi) | inhibition at 20 ppm [3] | inhibition at 20 ppm [4] | pest or weed control at 200 ppm [5] | pest or weed control at 200 ppm [6] | inhibition at 20 ppm [7]
